The text below walks through data of US11970474B2, “Substituted benzodiazoles and use thereof in therapy” (THOMAS HELLEDAYS STIFTELSE FÖR MEDICINSK FORSKNING, priority 2018, dated 2024).

Each structure is given as a SMILES string.

Chain of OGG1 (O15527 whole entry): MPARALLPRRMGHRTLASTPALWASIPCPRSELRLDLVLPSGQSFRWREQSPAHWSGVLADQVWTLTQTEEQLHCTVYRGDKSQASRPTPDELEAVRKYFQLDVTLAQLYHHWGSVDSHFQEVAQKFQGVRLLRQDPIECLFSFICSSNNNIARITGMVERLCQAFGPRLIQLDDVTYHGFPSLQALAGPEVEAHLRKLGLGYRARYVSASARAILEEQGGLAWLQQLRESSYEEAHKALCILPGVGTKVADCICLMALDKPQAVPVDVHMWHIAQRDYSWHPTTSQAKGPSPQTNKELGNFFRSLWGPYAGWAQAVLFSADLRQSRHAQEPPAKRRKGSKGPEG

The test concerns the target OGG1 (Homo sapiens (Human), UniProt O15527). Briefly: In vitro OGG1 activity assay. In kind it is biochemical. To be noted: 800 pM OGG1 enzyme, 2 nM human APEX1, 10 nM 8-oxoA:C substrate. The protocol: Method 1: In Vitro OGG1 Activity Assay OGG1 activity is assayed by measuring the increase in fluorescence from a duplex oligonucleotide containing an OGG1 substrate and a fluorophore in close proximity that are quenched by a quencher on the complementary strand. […] OGG1 activity releases the substrate base from DNA by cleaving the N-glycosidic bond between base and deoxyribose. The resulting apurinic site is cleaved by an excessive amount APEX1 activity which cause the duplex to melt, which in turn cause the fluorophore to become unquenched. Compounds to be tested are dissolved in DMSO and nano-dispensed directly into black 384-well plates, followed by transfer of enzyme and substrate solutions. […] The fluorescent signal is recorded in a plate reader equipped with suitable filters to register fluorescein fluorescence.
In the case of `O=c1[nH]c2ccccc2n1[C@H]1CC[C@@H](C(=O)Nc2ccc(F)cc2)CC1` [Example 322, Cis-N-(4-fluorophenyl)-4-(2-oxo-2,3-dihydro-1H-benzo[d]imidazol-1-yl)cyclohexanecarboxamide], 2630 nM corresponded to half-maximal inhibition (IC50).

Regarding `N#Cc1cc(NC(=O)[C@H]2CC[C@@H](n3c(=O)[nH]c4c(Br)cccc43)CC2)ccc1Cl` [Example 157, (Cis)-4-(4-bromo-2-oxo-2,3-dihydro-1H-1,3-benzodiazol-1-yl)-N-(4-chloro-3-cyanophenyl)cyclohexane-1-carboxamide], the IC50 was 152 nM.

In turn, `COc1cc(NC(=O)[C@H]2CC[C@@H](n3c(=O)[nH]c4c(C(=O)NCC5CCCN5)cccc43)CC2)ccc1C` (stereo partly drawn) [Example 254, 2-Oxo-N-[(pyrrolidin-2-yl)methyl]-1-[cis-4-[(3-methoxy-4-methylphenyl)carbamoyl]cyclohexyl]-2,3-dihydro-1H-1,3-benzodiazole-4-carboxamide] displayed an IC50 of 0.21 nM.

Consider `COc1cccc2c1[nH]c(=O)n2C1CCN(C(=O)Nc2ccc(Cl)cc2)CC1` [Example 8, N-(4-chlorophenyl)-4-(4-methoxy-2-oxo-2,3-dihydro-1H-1,3-benzodiazol-1-yl)piperidine-1-carboxamide], for which it took 1550 nM to reach half-maximal inhibition (IC50).

Compound `COc1cc(NC(=O)[C@H]2CC[C@@H](n3c(=O)[nH]c4c(C(N)=O)cccc43)CC2)ccc1C` [Example 291, 2-Oxo-1-[cis-4-[(3-methoxy-4-methylphenyl)carbamoyl]cyclohexyl]-2,3-dihydro-1H-1,3-benzodiazole-4-carboxamide] yielded an IC50 of 9.53 nM.

Compound `CNC(=O)c1cccc2c1[nH]c(=O)n2[C@H]1CC[C@@H](C(=O)Nc2ccc(C)c(OC)c2)CC1` [Example 259, N-Methyl-2-oxo-1-[cis-4-[(3-methoxy-4-methylphenyl)carbamoyl]cyclohexyl]-2,3-dihydro-1H-1,3-benzodiazole-4-carboxamide] came in with an IC50 of 3.94 nM.

`Cc1cccc(NC(=O)[C@H]2CC[C@@H](n3c(=O)[nH]c4c(Br)cccc43)CC2)c1` [Example 143, (Cis)-4-(4-bromo-2-oxo-2,3-dihydro-1H-1,3-benzodiazol-1-yl)-N-(3-methylphenyl)cyclohexane-1-carboxamide] returned an IC50 of 1200 nM.

Regarding `O=C(Nc1ccc(I)cc1)N1CCCC(n2c(=O)[nH]c3c(Br)cccc32)CC1` (stereo not drawn) [Example 34, 4-(4-Bromo-2-oxo-2,3-dihydro-1H-1,3-benzodiazol-1-yl)-N-(4-iodophenyl)azepane-1-carboxamide], the IC50 amounted to 502 nM.

Regarding `COc1cc(NC(=O)[C@H]2CC[C@@H](n3c(=O)[nH]c4c(C(=O)N5CCN(CCN(C)C)CC5)cccc43)CC2)ccc1C` [Example 275, Cis-4-(4-{4-[2-(dimethylamino)ethyl]piperazine-1-carbonyl}-2-oxo-2,3-dihydro-1H-1,3-benzodiazol-1-yl)-N-(3-methoxy-4-methylphenyl)cyclohexane-1-carboxamide], the IC50 worked out at 171 nM.

For `Cn1cc(NC(=O)[C@H]2CC[C@@H](n3c(=O)[nH]c4c(Br)cccc43)CC2)cn1` [Example 170, (Cis)-4-(4-bromo-2-oxo-2,3-dihydro-1H-1,3-benzodiazol-1-yl)-N-(1-methyl-1H-pyrazol-4-yl)cyclohexane-1-carboxamide], the concentration for half-maximal inhibition (IC50) was 8800 nM.

On to `COc1ccc(-c2cccc3c2[nH]c(=O)n3C2CCN(C(=O)Nc3ccc(Cl)c(OC)c3)CC2)cn1` [Example 105, N-(4-chloro-3-methoxyphenyl)-4-[4-(6-methoxypyridin-3-yl)-2-oxo-2,3-dihydro-1H-1,3-benzodiazol-1-yl]piperidine-1-carboxamide], for which the concentration for half-maximal inhibition (IC50) came out at 2940 nM.

On to `CC1CN(C(=O)Nc2ccc(Cl)c(Cl)c2)CCC1n1c(=O)[nH]c2c(Br)cccc21` (stereo not drawn) [Example 113, 4-(4-Bromo-2-oxo-2,3-dihydro-1H-benzo[d]imidazol-1-yl)-N-(3,4-dichlorophenyl)-3-methylpiperidine-1-carboxamide], for which the IC50 is 3200 nM.
